Results reported in patent publication US20100093701A1, “COMBINATION THERAPY COMPRISING ANGIOTENSIN RECEPTOR BLOCKERS AND VASOPRESSIN RECEPTOR ANTAGONISTS” (priority 2008, published 2010).

Experiments:
[1] = test system: rat remnant kidney model; test: Efficacy in rat remnant kidney model of nephropathy (renal mass reduction); format: in vivo; conditions: for Mortality Rates in Remnant Kidney Model / Mortality compared to the vehicle treated group: in drinking water; for Mortality Rates in Remnant Kidney Model: started 21 days after RMR, n=12/group; for Mortality compared to the vehicle treated group: Compound 1 30 mg/kg/d, losartan 10 mg/kg; for percentage of sclerotic glomeruli compared with vehicle: renal histology at termination of the experiment; for number of ED 1 positive cells per field (monocytes/macrophages in the renal interstitium): renal histology at termination, not statistically significant vs vehicle (61±5)
Source text: (§1) The rat remnant kidney model is an animal model of severe progressive renal failure. In this model, a state of severe progressive renal failure is produced by renal mass reduction (RMR) through removal of one kidney and ligation of several branches of the renal artery, resulting in infarction and loss of function of two thirds of the remaining kidney. The procedure creates the conditions of severe hypertension, proteinuria, progressive renal function deterioration, tubulointerstitial damage and glomerulosclerosis (Olson J L, Hostetter T H, Rennke H G, Brenner B M, Venkatachalam M A: “Altered glomerular permselectivity and progressive sclerosis following extreme ablation of renal mass”. Kidney Int 22:112-126, 1982).
Nephropathy is evident as a progressively increasing amount of protein in urine, increases in serum creatinine and increases in arterial pressure. In addition, severe sclerosis of the glomeruli, inflammatory cell infiltration and tubular damage are measurable through histological analysis within 3 months of RMR. These measures form the basis for determining efficacy in the model. Urine protein, serum creatinine and arterial pressure are similarly measured in humans to determine impact of treatments on disease progression.
The aim of this study was to evaluate the effects of Compound 1 compared to an angiotensin receptor blocker (losartan), as well as the combination treatment with Compound 1 and losartan, on proteinuria and renal disease progression in this model. The effectiveness of these agents has been associated with reductions in proteinuria, slowing of the rate of rise in serum creatinine and reduction in glomerular sclerosis and thus slowing of the progression to end stage renal failure.
(§2) Treatment groups (n=12/group) included vehicle; Compound 1 at 30 mg/kg/d; losartan at 10 mg/kg; and losartan at 10 mg/kg+Compound 1 at 30 mg/kg/d. All compounds were administered in drinking water. An additional sham-operated untreated group was also included. Measurements were made at 21 d after RMR but before treatment, and at one and two months of treatment.
At the termination of the experiment kidneys were examined quantitatively for histopathological damage. […] Accumulation of monocytes/macrophages in the renal interstitium was quantified as the number of ED 1 (an antibody to CD68, a monocyte/macrophage specific antigen) positive cells per field.

[2] = test system: remnant kidney model; test: Water intake and diuresis in remnant kidney model; format: in vivo, rat; conditions: mean ± S.E.
Source text: as §1, §2

[3] = test system: rat remnant kidney model; test: Blood pressure in rat remnant kidney model; format: in vivo; conditions: 1- and 2-months of treatment
Source text: as §1
as §2, with “Treatments were started 21 days after RMR, when animals already had overt nephropathy. Treatment” for “Treatment”, “treatment. Mortality was less in the Compound 1, losartan and Compound 1+ losartan groups compared to the vehicle treated group (Table 1). […]” for “treatment.”

[4] = 2 month of treatment, n = 10, 10 and 11
[5] = Pre-treatment (21 d after RMR), n = 12

Structure (SMILES)	Mortality Rates in Remnant Kidney Model ([1]; 1 month of treatment)	Mortality Rates in Remnant Kidney Model ([1]; 2 month of treatment)	Mortality compared to the vehicle treated group [1]	serum creatinine compared to the vehicle group ([1]; at 1 and 2 months of treatment)	statistical significance of the effect on urine protein excretion ([1]; at 1 and 2 months of treatment)	urine protein excretion compared to the vehicle group ([1]; at 1 and 2 months of treatment)	percentage of sclerotic glomeruli compared with vehicle [1]	number of ED 1 positive cells per field (monocytes/macrophages in the renal interstitium) [1] [positive cells per field]	diuresis ([2]; 1 month of treatment, n = 12) [mL/24 h]	water intake ([2]; 1 month of treatment, n = 12) [mL/24 h]	diuresis [2, 4] [mL/24 h]	water intake [2, 4] [mL/24 h]	diuresis [2, 5] [mL/24 h]	water intake [2, 5] [mL/24 h]	diuresis ([2]; basal, n = 12) [mL/24 h]	water intake ([2]; basal, n = 12) [mL/24 h]	arterial pressure compared to vehicle [3]
CCCCc1nc(Cl)c(CO)n1Cc1ccc(-c2ccccc2-c2nn[nH]n2)cc1 [losartan]	12/12	2/12	less	reduced	not statistically significant	reduced	significant reduction	38±6	45 ± 3	77 ± 4	45 ± 4	76 ± 5	45 ± 3	68 ± 4	20 ± 1	46 ± 2	statistically significant decrease
COc1cc(C(=O)N2CC[C@]3(C=C(C(=O)O)CC3)Cc3ccccc32)ccc1NC(=O)c1cc(F)ccc1Cl [Compound 1]	12/12	2/12	less	reduced	–	reduced	tended to decrease	45±5	47 ± 4	70 ± 8	43 ± 5	72 ± 10	44 ± 3	65 ± 2	19 ± 1	43 ± 2	tended to decrease
